Experimental data: PubChem BioAssay AID1963833 (Molecular Pharmacology Branch, DTP, NCI, 2024)

Test system: 883617-216-R-J1-PDC complex spheroid viability
Test: Anticancer human tumor 883617-216-R-J1-PDC patient-derived bladder carcinoma cell line growth inhibition [POLQ]
Settings: for IC50: curve of first compound; for viability, T/C: stronger effect = lower value
In short: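 Three-cell-type spheroids modelling solid tumor plus stroma served as the readout system; POL inhibitors were tested individually and in combination, concentration ranges set by clinical Cmax where known.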

[1] = second compound 0.0316 µM, first compound 0.0316 µM
[2] = second compound 0.0316 µM, first compound 0.1 µM
[3] = second compound 0.0316 µM, first compound 0.316 µM
[4] = second compound 0.0316 µM, first compound 1 µM
[5] = second compound 0.0316 µM, first compound 3.16 µM
[6] = second compound 0.0316 µM, first compound 10 µM
[7] = second compound 0.1 µM, first compound 0.0316 µM
[8] = second compound 0.1 µM, first compound 0.1 µM
[9] = second compound 0.1 µM, first compound 0.316 µM
[10] = second compound 0.1 µM, first compound 1 µM
[11] = second compound 0.1 µM, first compound 3.16 µM
[12] = second compound 0.1 µM, first compound 10 µM
[13] = second compound 0.316 µM, first compound 0.0316 µM
[14] = second compound 0.316 µM, first compound 0.1 µM
[15] = second compound 0.316 µM, first compound 0.316 µM
[16] = second compound 0.316 µM, first compound 1 µM
[17] = second compound 0.316 µM, first compound 3.16 µM
[18] = second compound 0.316 µM, first compound 10 µM
[19] = second compound 1 µM, first compound 0.0316 µM
[20] = second compound 1 µM, first compound 0.1 µM
[21] = second compound 1 µM, first compound 0.316 µM
[22] = second compound 1 µM, first compound 1 µM
[23] = second compound 1 µM, first compound 3.16 µM
[24] = second compound 1 µM, first compound 10 µM
[25] = second compound 3.16 µM, first compound 0.0316 µM
[26] = second compound 3.16 µM, first compound 0.1 µM
[27] = second compound 3.16 µM, first compound 0.316 µM
[28] = second compound 3.16 µM, first compound 1 µM
[29] = second compound 3.16 µM, first compound 3.16 µM
[30] = second compound 3.16 µM, first compound 10 µM
[31] = second compound 10 µM, first compound 0.0316 µM
[32] = second compound 10 µM, first compound 0.1 µM
[33] = second compound 10 µM, first compound 0.316 µM
[34] = second compound 10 µM, first compound 1 µM
[35] = second compound 10 µM, first compound 3.16 µM
[36] = second compound 10 µM, first compound 10 µM
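Further: spheroids exposed to compounds for seven days before readout.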
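Wherever viability, T/C is given: 100% = DMSO vehicle control viability.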

CC(=O)O[C@H]1C(=O)[C@@]2(C)[C@H]([C@H](OC(=O)c3ccccc3)[C@]3(O)C[C@H](OC(=O)[C@H](O)[C@@H](NC(=O)c4ccccc4)c4ccccc4)C(C)=C1C3(C)C)[C@]1(OC(C)=O)CO[C@@H]1C[C@@H]2O + Nc1ccc(C#CCN(C(=O)Cc2ncc(C(F)(F)F)cc2C(F)(F)F)c2ccc(F)cc2)nn1
IC50 (second compound 0.0316 µM): 11.9 nM
IC50 (second compound 0.1 µM): 10.5 nM
IC50 (second compound 0.316 µM): < 9.49 nM
IC50 (second compound 1 µM): < 9.49 nM
IC50 (second compound 3.16 µM): 10.4 nM
IC50 (second compound 10 µM): 11.6 nM
viability, T/C (second compound 0.0316 µM, first compound 0.00949 µM): 54.8%
viability, T/C (second compound 0.0316 µM, first compound 0.03 µM): 30.9%
viability, T/C (second compound 0.0316 µM, first compound 0.0949 µM): 24.9%
viability, T/C (second compound 0.0316 µM, first compound 0.3 µM): 22.9%
viability, T/C (second compound 0.0316 µM, first compound 0.949 µM): 25.1%
viability, T/C (second compound 0.0316 µM, first compound 3 µM): 22.2%
viability, T/C (second compound 0.1 µM, first compound 0.00949 µM): 52.2%
viability, T/C (second compound 0.1 µM, first compound 0.03 µM): 27.6%
viability, T/C (second compound 0.1 µM, first compound 0.0949 µM): 31.1%
viability, T/C (second compound 0.1 µM, first compound 0.3 µM): 17.8%
viability, T/C (second compound 0.1 µM, first compound 0.949 µM): 18.7%
viability, T/C (second compound 0.1 µM, first compound 3 µM): 24.2%
viability, T/C (second compound 0.316 µM, first compound 0.00949 µM): 51.6%
viability, T/C (second compound 0.316 µM, first compound 0.03 µM): 31.1%
viability, T/C (second compound 0.316 µM, first compound 0.0949 µM): 21.7%
viability, T/C (second compound 0.316 µM, first compound 0.3 µM): 24.8%
viability, T/C (second compound 0.316 µM, first compound 0.949 µM): 34.9%
viability, T/C (second compound 0.316 µM, first compound 3 µM): 36%
viability, T/C (second compound 1 µM, first compound 0.00949 µM): 49.1%
viability, T/C (second compound 1 µM, first compound 0.03 µM): 26.9%
viability, T/C (second compound 1 µM, first compound 0.0949 µM): 23.5%
viability, T/C (second compound 1 µM, first compound 0.3 µM): 20%
viability, T/C (second compound 1 µM, first compound 0.949 µM): 23%
viability, T/C (second compound 1 µM, first compound 3 µM): 31.8%
viability, T/C (second compound 3.16 µM, first compound 0.00949 µM): 50.5%
viability, T/C (second compound 3.16 µM, first compound 0.03 µM): 43.2%
viability, T/C (second compound 3.16 µM, first compound 0.0949 µM): 27.8%
viability, T/C (second compound 3.16 µM, first compound 0.3 µM): 28%
viability, T/C (second compound 3.16 µM, first compound 0.949 µM): 20.7%
viability, T/C (second compound 3.16 µM, first compound 3 µM): 23.5%
viability, T/C (second compound 10 µM, first compound 0.00949 µM): 53.8%
viability, T/C (second compound 10 µM, first compound 0.03 µM): 31.9%
viability, T/C (second compound 10 µM, first compound 0.0949 µM): 27.2%
viability, T/C (second compound 10 µM, first compound 0.3 µM): 26.5%
viability, T/C (second compound 10 µM, first compound 0.949 µM): 28%
viability, T/C (second compound 10 µM, first compound 3 µM): 24.6%

CC1COCCN1c1cc(C2(O)CC3CCC(C2)O3)c2cnn(-c3ccn[nH]3)c2n1 (stereo unspecified) + Cc1cccc(N(C)C(=O)C2C(O)CCN2c2nc(C)cc(C(F)(F)F)c2C#N)c1
IC50 (second compound 0.0316 µM): 156 nM
IC50 (second compound 0.1 µM): 173 nM
IC50 (second compound 0.316 µM): 188 nM
IC50 (second compound 1 µM): 125 nM
IC50 (second compound 3.16 µM): 173 nM
IC50 (second compound 10 µM): 215 nM
viability, T/C [1]: 76.6%
viability, T/C [2]: 58.4%
viability, T/C [3]: 35.7%
viability, T/C [4]: 33.7%
viability, T/C [5]: 23.9%
viability, T/C [6]: 23.9%
viability, T/C [7]: 80.4%
viability, T/C [8]: 54.9%
viability, T/C [9]: 41.2%
viability, T/C [10]: 37.9%
viability, T/C [11]: 26.8%
viability, T/C [12]: 23.2%
viability, T/C [13]: 71%
viability, T/C [14]: 61.2%
viability, T/C [15]: 38.6%
viability, T/C [16]: 35.8%
viability, T/C [17]: 24.2%
viability, T/C [18]: 24%
viability, T/C [19]: 78.6%
viability, T/C [20]: 48.8%
viability, T/C [21]: 41.7%
viability, T/C [22]: 33%
viability, T/C [23]: 27.9%
viability, T/C [24]: 23.2%
viability, T/C [25]: 79.3%
viability, T/C [26]: 54.9%
viability, T/C [27]: 44.9%
viability, T/C [28]: 31.6%
viability, T/C [29]: 26.4%
viability, T/C [30]: 23.4%
viability, T/C [31]: 81.5%
viability, T/C [32]: 60.3%
viability, T/C [33]: 39.3%
viability, T/C [34]: 42.4%
viability, T/C [35]: 31.4%
viability, T/C [36]: 23.9%

Nc1ccn(C2OC(CO)C(O)C2(F)F)c(=O)n1 (stereo unspecified) + Cc1cccc(N(C)C(=O)C2C(O)CCN2c2nc(C)cc(C(F)(F)F)c2C#N)c1
IC50 (second compound 0.0316 µM): < 31.6 nM
IC50 (second compound 0.1 µM): < 31.6 nM
IC50 (second compound 0.316 µM): < 31.6 nM
IC50 (second compound 1 µM): < 31.6 nM
IC50 (second compound 3.16 µM): < 31.6 nM
IC50 (second compound 10 µM): < 31.6 nM
viability, T/C [1]: 35.8%
viability, T/C [2]: 33.2%
viability, T/C [3]: 41.2%
viability, T/C [4]: 41.4%
viability, T/C [5]: 33.5%
viability, T/C [6]: 31.1%
viability, T/C [7]: 28%
viability, T/C [8]: 45.6%
viability, T/C [9]: 31.8%
viability, T/C [10]: 38.2%
viability, T/C [11]: 36.9%
viability, T/C [12]: 24.6%
viability, T/C [13]: 30.1%
viability, T/C [14]: 31.9%
viability, T/C [15]: 34%
viability, T/C [16]: 38.5%
viability, T/C [17]: 31.6%
viability, T/C [18]: 35.5%
viability, T/C [19]: 32.5%
viability, T/C [20]: 27.6%
viability, T/C [21]: 33.8%
viability, T/C [22]: 36.5%
viability, T/C [23]: 39.3%
viability, T/C [24]: 34.7%
viability, T/C [25]: 35%
viability, T/C [26]: 28.4%
viability, T/C [27]: 41.2%
viability, T/C [28]: 39.8%
viability, T/C [29]: 40.9%
viability, T/C [30]: 27.4%
viability, T/C [31]: 37.9%
viability, T/C [32]: 35.5%
viability, T/C [33]: 39.2%
viability, T/C [34]: 39.2%
viability, T/C [35]: 39.1%
viability, T/C [36]: 31.7%
